Assay results taken from patent US11028054B2, “1, 4, 6-trisubstituted-2-alkyl-1H-benzo[d]imidazole derivatives as dihydroorotate oxygenase inhibitors” (Merck Patent GmbH, priority 2017, dated 2021).

How the values were obtained:
DHODH [1] = target: T1, DHODH (Homo sapiens (Human), UniProt Q02127); assay: Measurement of DHODH inhibitory enzyme activity (coupled DCIP reduction assay); assay type: biochemical
Description: Measurement of DHODH Inhibitory Enzyme Activity (In Vitro Assays)
The DHODH activity assay is a coupled enzyme assay in which oxidation of DHO and subsequent reduction of ubiquinone are stoichiometrically equivalent to the reduction of DCIP ([…]). The reduction of DCIP is accompanied by a loss of absorbance at 610 nm.
Reagents used: L-Dihydroorotic acid, Sigma, D7128, 2,6-Dichloroindophenol sodium salt hydrate, sigma, D1878 Dimethyl sulfoxide (DMSO), spectroscopic grade purchased from Spectrochem, cat no. 0704209, B. no.—3183650 Decylubiquinone, Sigma, D7911.
Preparation of Solutions/Reagents:
Buffer Preparation: 50 mM tris HCl, 150 mM KCl, and pH 8.0, 0.8% triton.
L-Dihydroorotic acid stock solution of 20 mM in buffer.
2, 6-Dichloroindophenol Sodium salt hydrate stock solution of 20 mM in buffer.
Decylubiquinone stock solution of 20 mM in buffer.
5 μL of Dimethyl sulfoxide or a compound of formula (I) in DMSO solution was added to the wells of a 96 well plate. Compounds of formula (I) were measured at 10 μM.
Protein along with buffer was added, so that the total volume including the DMSO was 87 μL. Compound and protein were incubated for half an hour at room temperature after mixing. 5 μL of 20 mM solution of L-Dihydroorotic acid, 5 μL of 2 mM solution of Decylubiquinone and 3 μL of 2 mM solution of 2, 6-Dichloroindophenol sodium salt hydrate were added to the above solution (total assay volume 100 μL). The mixture was stirred for 2 min and absorbance was recorded at every 10 min at 610 nanometers.
Percent inhibition is calculated as follows 100*{(Abs610 for reaction containing compound)−(Abs610 for positive control) (Abs610 for no enzyme reaction)−(Abs610 for positive control) Reaction containing compound has compound, buffer, enzyme and substrates Positive control contains DMSO, buffer, enzyme and substrates No Enzyme reaction contains DMSO, buffer and substrates IC50 determination: A 2 mM DMSO stock solution of the selected 1, 4, 6-trisubstituted-2-alkyl-1H-benzo[d]imidazole derivatives of formula (I) of the present invention to be examined was prepared. Subsequent ⅓rd dilutions were made as follows:
5 μL of each stock of compound of formula (I) (solution indicated in column 4 of table) was used for each 100 μL assay. Therefore, 5 μL of the 2 mM stock provided 100 μL of 100 μM solution of compound of formula (I), when made up with buffer, protein and substrate. See also: Ulrich et al. (2001) Eur. J. Biochem. 268, 1861-1868.

Jurkat cells = assay: Measurement of cell proliferation activity (Jurkat cell), XTT assay; assay type: cell-based; conditions: Homo sapiens, 72 hrs incubation, cell viability by XTT assay
Description: Measurement of Cell Proliferation Activity (Jurkat Cell)
Jurkat cells are an immortalized cell line of T lymphocyte cells, which are used to study acute T cell leukaemia, T cell signalling, and the expression of various chemokine receptors susceptible to viral entry, particularly HIV. Jurkat cells are also useful in science because of their ability to produce interleukin 2. Their primary use, however, is to determine the mechanism of differential susceptibility of cancers to drugs and radiation.
Jurkat cells are cultured in RPMI medium with 10% FBS, and seeded at a density of 100,000 cells per well in a 96 well plate. Compound is added at different concentrations (typically starting at 10 μM followed by half log dilutions for a total of 8-10 concentrations). Each concentration is tested in triplicate and DMSO concentration is kept constant at 0.25-0.5%. The cells are then incubated in a CO2 incubator at 37° C. for 72 hrs before determining cell viability using XTT assay. Cell viability is plotted as a function of concentration and EC50 is determined using GraphPad Prism software
• Roehm, N et al [1991] An improved colorimetric assay for cell proliferation and viability utilizing the tetrazolium salt XTT. J. Immunol. Methods 142:257-265. Reagents: Roswells park memorial institute's medium, (RPMI-1640 complete media) pH-7.4±0.2 (Sigma R6504). • Dimethyl sulfoxide (DMSO), spectroscopic grade purchased from Spectrochem, (cat no. 0704209, B. no.—3183650 MEM Cat. No. M0268, Sigma). Fetal Bovine Serum (Cat. No. F9665, Sigma Aldrich). XTT sodium salt (Sigma Cat. No. X4251). PMS (Sigma Cat. No. 68600). Preparation of Solutions/Reagents
RPMI media supplemented with antibiotics, 10% FBS, Sodium Pyruvate and NEA (non essential amino acids).
XTT—A freshly prepared solution of XTT is made in the growth medium, with a final concentration of 1 mg/ml.
PMS—Stock is prepared with 1×PBS at 0.383 mg/ml and stored in aliquots at −20° C. The XTT solution at 20 μl/ml was added just before use.
Test solution—Serially diluted DMSO solutions are further diluted with media to 2× the required concentration in well.
Culture Jurkat cells in T-25 flasks at a density of 0.2×10^6/ml 2-3 days before the day of experiment set up.
Centrifuge Jurkat T-cell suspension at 1200 rpm for 10 minutes and resuspend cells again in fresh RPMI medium with 10% FBS. Count the cells and dilute suspension to a density of 2×10^6 cells/ml. Seed 50 μL of this suspension in each well of a 96 well plate (100,000 cells per well). Keep the edges of the plate empty to avoid evaporation. […]
XTT assay: to each well, add 50 μL of 1 mg/ml XTT solution with 20 μl of PMS/mL. Read the plates after 2 hours at 465 nm using the spectrophotometer. XTT reading for media without cells is used as background reading. […]

DHODH [2] = target: T1, DHODH; conditions: DHODH versus protein tyrosine kinase; cited from earlier work

T1 sequence (Q02127 whole entry): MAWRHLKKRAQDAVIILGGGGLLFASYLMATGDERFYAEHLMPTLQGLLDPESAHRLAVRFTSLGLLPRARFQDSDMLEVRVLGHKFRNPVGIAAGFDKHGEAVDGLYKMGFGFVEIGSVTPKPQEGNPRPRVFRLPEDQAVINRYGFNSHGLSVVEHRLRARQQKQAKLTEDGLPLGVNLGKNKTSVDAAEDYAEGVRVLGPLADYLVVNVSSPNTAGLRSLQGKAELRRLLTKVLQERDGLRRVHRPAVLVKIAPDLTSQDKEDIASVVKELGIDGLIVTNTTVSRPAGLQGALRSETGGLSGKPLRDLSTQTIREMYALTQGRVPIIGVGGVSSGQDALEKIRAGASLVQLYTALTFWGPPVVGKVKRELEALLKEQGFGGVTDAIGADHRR

Cc1nc2c(C(=O)O)cc(-c3ccc(-c4ccccc4)cc3)cc2[nH]1 [Example 1, 6-([1,1'-biphenyl]-4-yl)-2-methyl-1H-benzo[d]imidazole-4-carboxylic acid]
IC50 (DHODH [1]): 10 to 99 nM | EC50 (Jurkat cells): 133 nM

Cc1nc2c(C(=O)O)cc(-c3ccc(-c4ccccc4F)cc3)cc2[nH]1 [Example 5, 6-(2'-fluoro-[1,1'-biphenyl]-4-yl)-2-methyl-1H-benzo[d]imidazole-4-carboxylic acid]
IC50 (DHODH [1]): 10 to 99 nM | EC50 (Jurkat cells): 49 nM

COc1cccc(-c2ccc(-c3cc(C(=O)O)c4nc(C)[nH]c4c3)cc2)c1 [Example 10, 6-(3'-methoxy-[1,1'-biphenyl]-4-yl)-2-methyl-1H-benzo[d]imidazole-4-carboxylic acid]
IC50 (DHODH [1]): 10 to 99 nM | EC50 (Jurkat cells): 32 nM

COc1ccccc1-c1ccc(-c2cc(C(=O)O)c3nc(C)[nH]c3c2)cc1 [Example 18, 6-(2'-methoxy-[1,1'-biphenyl]-4-yl)-2-methyl-1H-benzo[d]imidazole-4-carboxylic acid]
IC50 (DHODH [1]): 10 to 99 nM | EC50 (Jurkat cells): 111 nM

Cc1nc2c(C(=O)O)cc(-c3ccc(-c4c(C)cccc4C)cc3)cc2[nH]1 [Example 145, 6-(2',6'-dimethyl-[1,1'-biphenyl]-4-yl)-2-methyl-1H-benzo[d]imidazole-4-carboxylic acid]
IC50 (DHODH [1]): 10 to 99 nM

Cc1nc2c(C(=O)O)cc(-c3ccc(-c4c(F)cccc4CN4CCCC4)cc3)cc2[nH]1 [Example 150, 6-(2'-fluoro-6'-(pyrrolidin-1-ylmethyl)-[1,1'-biphenyl]-4-yl)-2-methyl-1H-benzo[d]imidazole-4-carboxylic acid.2,2,2-trifluoroacetic acid]
IC50 (DHODH [1]): 1 to 9.9 nM

C/C(O)=C(\C#N)C(=O)Nc1ccc(C(F)(F)F)cc1 [Teriflunomide]
fold greater inhibitor of DHODH than of protein tyrosine kinase (DHODH [2]): 100-1,000 fold
